Data from patent US20230313181A1, “HISTIDINE-LYSINE POLYMERS AND METHODS FOR DELIVERING MRNA USING THE SAME” (UNIVERSITY OF MARYLAND, BALTIMORE, priority 2019, published 2023).
Bridges are numbered along the chain shown (N, C = ends). Roman numbers before positions name the chains, in order. Where no end group is shown, it is not given here.

What was measured:
[1] = tested on: cytokines; conditions: in vitro and in vivo; prior study [45]; cited from earlier work
[2] = Particle size, polydispersity index (PDI) and zeta potential of polyplexes (Zetasizer); assay type: physicochemical
Method: Particle size, polydispersity index (PDI), and zeta potential. The size, PDI, and zeta potential were determined with the Zetasizer (Malvern, Westborough, Mass.) and analyzed with software provided by the instrument manufacturer (Zetasizer software, version 6.2). Using dynamic light scattering at a 90° angle, the size of the particles were reported as the Z-average diameter from the intensity-weighted size distribution. Prior to the measurements, the samples were equilibrated to 25° C. for 2 min. Each measurement had at least ten sub-runs under the automatic mode of the software. The particle size, PDI, and zeta potential data point represent the mean±SD of three measurements. After mixing HK peptides (4 μg) and mRNA (1 μg) in 100 μl of defined media (Opti-MEM, water, or DMEM/8% FBS) for 30 min, 100 μl of additional defined media was added to the polyplex solution (total volume 200 μl) to measure the size and PDI. To determine the zeta potential, 800 μl more of the media was added (total volume 1000 μl), mixed gently, and then added to the disposable zeta cell.
Because different stabilities were observed between the H3K4b and H3K(+H)4b polyplexes, whether the sizes of these polyplexes varied based on the media in which they were prepared was investigated. […] H3K(+H)4b and H3K4b peptides (4 μg) in complex with mRNA (1 μg) were mixed with either Opti-MEM, water, or DMEM/8% FBS […]. After 1 h, the size, PDI, and zeta potential were measured.

[3] = prior studies [34, 35, 45]; cited from earlier work
[4] = Acid-base titration of HK polymer solutions; assay type: physicochemical; conditions: pH titration curves, 5 mg/ml
Method: FIG. 2. Titration of different HK peptide solutions. Solutions of polymers (5 mg/ml) (H2K4b, H3K4b, H3K(+H)4b, and H4K4b) were adjusted to pH 3 (initial volume—1 ml) and then […] aliquots of 0.05 N NaOH were stepwise added and the pH measured.
Acid-Base Titration. After polymer solutions (e.g. containing one or more of H2K4b, H3K4b, H3K(+H)4b, and H4K4b) were adjusted to pH 3.0 (5 mg/mil; initial volume—1 mil), aliquots (5 μl) of NaOH (0.05 N) were stepwise added with the pH measured (FiveEasy™ meter; InLab Solids Pro-ISM pH electrode, Mettler Toledo, Columbus, OH). Titration was stopped at about pH 9.0.

[5] = tested on: mRNA; assay: Heparin displacement assays (gel electrophoresis and Sybr Gold dye intercalation); assay type: physicochemical; conditions: HK:mRNA 4:1 wt/wt
Method: FIG. 4. Heparin Displacement Assays. After HK polyplexes were formed (wt:wt; HK:mRNA; 4 μg:1 μg), different concentrations of heparin […] were incubated with these for 30 min. A. Gel Retardation. The HK polyplexes were loaded on the agarose gel (1%), and electrophoresis was carried out and stained with Sybr Gold. B. Fluorescent dye intercalation. After the HK polyplexes were formed and incubated with several concentrations of heparin, the Sybr Gold nucleic acid dye was incubated with the HK polyplexes for 5 mins. Fluorescence was then measured by a microplate fluorimeter (λex=497 nm, λem=520 nm) (SynergyMx, BioTek). *, P<0.05; ***, P<0.001; H3K4b or H2K vs. H3K(+H)4b.
Heparin Displacement Assays. Heparin displacement assays of HK polyplexes were done with the dye intercalation assay and with gel electrophoresis. A fluorescent assay assessed polyplexes of HK polymer and mRNA (4:1 wt/wt ratio; polymer:mRNA) formed in RNAse/DNAase free water (Corning, Manassas, VA). HK polyplexes were prepared as described previously, followed by the addition of diluted Syber Gold. For detection, working dilutions of the polyplexes (1/5 of volume), water (3/5) and Sybr Gold dye (1/5, 0.2×) were incubated for 5 minutes, and fluorescence was measured by a fluorimeter (Ex=497 nm, Em=520 nm) (SynergyMx, BioTek, Winooski, VT). The control sample was prepared with the same amount of mRNA, water, and Sybr Gold dye. For the heparin displacement, instead of water, heparin salt (Sigma-Aldrich, St. Louis, MO) solutions at different concentrations (0.5, 1, 1.5, 2, 3 μg/μl) were used, and the HK polyplexes were incubated at 37° C. for 30 min before addition of Sybr Gold.
Displacement of mRNA from HK polyplexes with heparin was also done with gel electrophoresis. After HK polyplexes were formed, different concentrations of heparin (0.5, 1.0, 1.5, 2.0, 3.0 μg/μl; volume 20 μl) were incubated with these at 37° C. for 30 min. The polyplexes were then loaded on the agarose gel (1%; 10× BlueJuice Gel loading buffer), and electrophoresis was carried out and stained with SG as described above. […]

[6] = Cell viability assay (trypan blue exclusion); assay type: cell-based; conditions: human, MDA-MB-231 cells, HK polymer 4 μg or polyplex (4 μg HK; 1 μg mRNA), then 19 h DMEM/10% FBS
Method: Cell Viability Assay. MDA-MB-231 cells were seeded at 5.0×10^4/well in a 24-tissue culture plate and incubated overnight in DMEM supplemented with 10% FBS serum. The media was then changed to Opti-MEM and the cells were treated with either the HK polymer (4 μg) or the HK polyplex (4 μg HK; 1 μg mRNA) for 5 h. After the media was changed to DMEM/10% FBS for 19 h, the cell viability was measured using the trypan blue cell exclusion assay (Trypan Blue solution, 0.4%, Sigma-Aldrich, St. Louis, MO).
After the medium was changed to Opti-MEM in cell cultures of the MDA-MB-231 cells used in the experiment described above, either the HK polymer (4 μg) or the HK polyplex (4 μg HK; 1 μg mRNA) was added dropwise to the cells and incubated for 5 h. The media was then changed to DMEM/10% FBS for 19 h and cell viability was determined using the trypan cell exclusion assay.

[7] = tested on: MDA-MB-231 cells; assay: In vitro mRNA transfection with HK polyplexes (luciferase mRNA, luciferase activity); assay type: cell-based; conditions: mRNA 1 μg, 24 h
Method: FIG. 1. Comparison of H3K(+H)4b and H3K4b peptides as carriers of mRNA. To form the HK polyplexes, the mRNA (1 μg) was mixed with 3 different ratios of the HK ([…]) polymer for 30 minutes. The HK polyplexes were then added to the cells for 24 h before the luciferase activity was measured. ****, H3K(+H)4b vs H3K4b, P<0.0001.
In vitro mRNA Transfection. Several HK polymers were examined for their ability to carry a luciferase-expressing mRNA (CleanCap Firefly Luciferase mRNA, Trilink Biotechnologies, Inc, San Diego, CA) into MDA-MB-231 cells (America Type Tissue Culture, Manassas, VA). In brief, 3×10^4 cells were plated into a 24-well plate containing 500 μl of DMEM and 10% fetal bovine serum (ThermoFisher Scientific, Waltham, MA). After 24 h, when the cells were 60 to 80% confluent, the media in each well was changed to Opti-MEM (ThermoFisher Scientific). To prepare HK polyplexes, mRNA (1 μg) in 50 μl of Opti-MEM was briefly mixed well with one of the HK polymers (4 to 12 μg) and maintained at room temperature for 30 min. This polyplex was then added dropwise to the cells. After four h, the Opti-MEM media was removed and replaced with 0.5 ml of DMEM/10% serum (0.5 ml). Twenty-four hours later, the cells were lysed, and the luciferase activity (Promega Corporation, Madison, WI) was measured.
To obtain the data in Table 4, luciferase-expressing mRNA (1 μg) in 50 μl of Opti-MEM was briefly mixed with one of the HK polymers (4, 8, or 12 μg) and maintained at room temperature for 30 min. The resulting polyplexes were added dropwise to the MDA-NM-231 cells and after four h, the Opti-MEM media was removed and replaced with DMEM/10% serum. Twenty-four hours later, the cells were lysed, and the luciferase activity was measured

[8] = polyplex HK 4 μg:mRNA 1 μg in DMEM/8% FBS
[9] = polyplex HK 4 μg:mRNA 1 μg in Opti-MEM
[10] = polyplex HK 4 μg:mRNA 1 μg in Water

I: KHHHKHHHKHHHKHHHKKKK-NH2 / II: KHHHKHHHKHHHKHHHK / III: KHHHKHHHKHHHKHHHK / IV: KHHHKHHHKHHHKHHHK (amide I:18-IV:C, I:19-III:C, I:20-II:C) [H3K4b]
cytokine induction by siRNA polyplex (in words) [1]: induced cytokines to a significantly greater degree
PDI [2, 8]: 0.421
Size [2, 8]: 578 ± 80.5 nm
Zeta Potential [2, 8]: −12.1 ± 2.22 mV
PDI [2, 9]: 0.466
Size [2, 9]: 2030.7 ± 117.3 nm
Zeta Potential [2, 9]: −4.20 ± 2.78 mV
PDI [2, 10]: 0.171
Size [2, 10]: 199.9 ± 0.8 nm
Zeta Potential [2, 10]: 16.47 ± 0.74 mV
carrier of siRNA (in words) [3]: effective carriers of siRNA
buffering profile / buffering capacity (in words) [4]: minimal differences in their buffering profile
binding/release of mRNA and polyplex stability on exposure to heparin (in words) [5]: released by the H3K4b polymer more readily than the H3K(+H)4b polymer
viability at 5 h [6]: 95.6%
RLU/μg-Protein (luciferase activity) ([7]; ratio mRNA:polymer 1:4 (wt:wt)): 156.8 ± 41.8 RLU/μg-Protein
RLU/μg-Protein (luciferase activity) ([7]; ratio mRNA:polymer 1:8 (wt:wt)): 62.1 ± 13.2 RLU/μg-Protein
RLU/μg-Protein (luciferase activity) ([7]; ratio mRNA:polymer 1:12 (wt:wt)): 18.1 ± 4.0 RLU/μg-Protein
